In ChEMBL document CHEMBL1201862, “PubChem BioAssay data set” (2004):
Active and inactive are the calls of the source.

Key:
[1] = target: G2/mitotic-specific cyclin-B1 (Homo sapiens, UniProt P14635); assay: Counterscreen assay for inhibitors of Wee1 degradation: dose response cell-based assay to identify inhibitors of cyclin B degradation. [Related pubchem assays: 1410, 1321 ]; format: functional
[2] = Luminescence Cell-Based Dose Response HTS to Identify Activators of Luciferase Translation or Activity in H4 […] Cells. [Related pubchem assays: 1829 (Project Summary), 1814 (Primary HTS)]; format: functional
Wee1-like protein kinase = Wee1-like protein kinase (Homo sapiens, UniProt P30291); assay: Dose Response Cell-based Assay for Inhibitors of Wee1 Degradation. [Related pubchem assays: 1410, 1321 ]; format: functional
Chain of Wee1-like protein kinase (P30291 whole entry): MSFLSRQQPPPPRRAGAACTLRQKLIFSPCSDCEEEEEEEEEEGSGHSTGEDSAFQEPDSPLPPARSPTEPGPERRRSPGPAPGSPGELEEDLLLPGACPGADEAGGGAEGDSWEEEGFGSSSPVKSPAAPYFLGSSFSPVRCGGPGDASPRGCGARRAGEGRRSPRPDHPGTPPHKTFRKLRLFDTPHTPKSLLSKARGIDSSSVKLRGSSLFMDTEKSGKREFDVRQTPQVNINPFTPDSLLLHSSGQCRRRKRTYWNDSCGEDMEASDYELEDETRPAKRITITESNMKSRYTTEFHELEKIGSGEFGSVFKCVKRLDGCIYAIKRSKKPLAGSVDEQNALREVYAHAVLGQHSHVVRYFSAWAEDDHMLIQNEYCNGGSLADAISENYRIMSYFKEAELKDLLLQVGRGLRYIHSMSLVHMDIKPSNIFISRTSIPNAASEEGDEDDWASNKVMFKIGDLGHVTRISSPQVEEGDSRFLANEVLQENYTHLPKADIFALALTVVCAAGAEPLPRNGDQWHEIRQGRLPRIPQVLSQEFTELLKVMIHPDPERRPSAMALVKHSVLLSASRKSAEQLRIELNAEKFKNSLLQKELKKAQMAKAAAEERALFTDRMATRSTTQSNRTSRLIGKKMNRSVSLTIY

H4 = assay: Luminescence Cell-Based Dose Response HTS to Identify Activators of 5'UTR Stem-Loop Driven Prion Protein mRNA Translation in H4 Neuroglioblastoma Cells. [Related pubchem assays: 1829 (Project Summary), 1814 (Primary HTS)]; format: functional; conditions: Homo sapiens
[3] = microbe, parasite or virus in culture; format: functional; conditions: Mycobacterium tuberculosis
[4] = target: NACHT, LRR and PYD domains-containing protein 3 (Homo sapiens, UniProt Q96P20); assay: NALP3 inhibitors in yeast, dose response, luminescent (AID 488799); format: functional
Chain of NACHT, LRR and PYD domains-containing protein 3 (Q96P20 whole entry, the tested form may be a part): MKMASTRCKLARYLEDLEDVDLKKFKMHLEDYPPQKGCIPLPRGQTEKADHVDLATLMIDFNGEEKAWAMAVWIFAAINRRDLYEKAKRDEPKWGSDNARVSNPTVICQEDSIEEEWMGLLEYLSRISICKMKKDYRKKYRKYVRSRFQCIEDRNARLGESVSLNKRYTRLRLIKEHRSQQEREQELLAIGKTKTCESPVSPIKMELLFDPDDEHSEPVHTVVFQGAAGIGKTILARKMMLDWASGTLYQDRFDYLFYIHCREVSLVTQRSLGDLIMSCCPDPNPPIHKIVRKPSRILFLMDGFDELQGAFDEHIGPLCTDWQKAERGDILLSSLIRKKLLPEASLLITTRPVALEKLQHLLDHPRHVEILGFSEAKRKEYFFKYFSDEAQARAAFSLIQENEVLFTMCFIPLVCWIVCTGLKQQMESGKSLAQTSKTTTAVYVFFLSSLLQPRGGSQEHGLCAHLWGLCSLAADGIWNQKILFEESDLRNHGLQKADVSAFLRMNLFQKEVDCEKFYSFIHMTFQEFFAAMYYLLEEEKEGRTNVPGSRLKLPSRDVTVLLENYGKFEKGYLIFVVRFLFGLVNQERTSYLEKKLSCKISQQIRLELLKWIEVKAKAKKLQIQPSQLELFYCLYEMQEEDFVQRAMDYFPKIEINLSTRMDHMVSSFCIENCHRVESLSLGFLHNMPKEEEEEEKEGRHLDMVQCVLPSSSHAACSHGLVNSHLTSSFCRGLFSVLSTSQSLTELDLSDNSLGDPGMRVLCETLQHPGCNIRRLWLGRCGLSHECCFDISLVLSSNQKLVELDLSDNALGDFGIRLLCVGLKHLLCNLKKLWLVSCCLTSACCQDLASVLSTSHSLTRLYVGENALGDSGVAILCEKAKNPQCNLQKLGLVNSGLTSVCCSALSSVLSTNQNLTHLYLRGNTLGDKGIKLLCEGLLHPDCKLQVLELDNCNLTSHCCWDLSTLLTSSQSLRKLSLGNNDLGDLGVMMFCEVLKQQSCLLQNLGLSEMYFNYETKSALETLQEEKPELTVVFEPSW

Bcl-2-like protein 10 = Bcl-2-like protein 10 (Homo sapiens, UniProt Q9HD36); assay: Bcl-B/TR3 peptide binding disruption – biochemical, fluorescence polarization, FITC-TR3 peptide, selectivity assay for Bfl-1 inhibitor project, primary screen (AID 748);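 further: fluorescence polarization from a fluorescein-labelled TR3 peptide binding purified Bcl-B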
Chain of Bcl-2-like protein 10 (Q9HD36 whole entry): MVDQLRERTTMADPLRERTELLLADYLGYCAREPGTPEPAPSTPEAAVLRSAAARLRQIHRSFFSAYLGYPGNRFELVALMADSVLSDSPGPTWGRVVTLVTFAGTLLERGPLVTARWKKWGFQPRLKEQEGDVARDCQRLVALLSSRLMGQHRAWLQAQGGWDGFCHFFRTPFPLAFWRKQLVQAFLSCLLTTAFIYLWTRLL

Aminopeptidase N = Aminopeptidase N (Plasmodium falciparum FcB1/Columbia, UniProt O96935); assay: malaria alanyl aminopeptidase activity blockers – biochemical, fluorogenic H-Leu-NHMec substrate, 1536-well (AID 1445); set-up: species or system Plasmodium falciparum 3D7, 3D7
Chain of Aminopeptidase N (O96935 whole entry): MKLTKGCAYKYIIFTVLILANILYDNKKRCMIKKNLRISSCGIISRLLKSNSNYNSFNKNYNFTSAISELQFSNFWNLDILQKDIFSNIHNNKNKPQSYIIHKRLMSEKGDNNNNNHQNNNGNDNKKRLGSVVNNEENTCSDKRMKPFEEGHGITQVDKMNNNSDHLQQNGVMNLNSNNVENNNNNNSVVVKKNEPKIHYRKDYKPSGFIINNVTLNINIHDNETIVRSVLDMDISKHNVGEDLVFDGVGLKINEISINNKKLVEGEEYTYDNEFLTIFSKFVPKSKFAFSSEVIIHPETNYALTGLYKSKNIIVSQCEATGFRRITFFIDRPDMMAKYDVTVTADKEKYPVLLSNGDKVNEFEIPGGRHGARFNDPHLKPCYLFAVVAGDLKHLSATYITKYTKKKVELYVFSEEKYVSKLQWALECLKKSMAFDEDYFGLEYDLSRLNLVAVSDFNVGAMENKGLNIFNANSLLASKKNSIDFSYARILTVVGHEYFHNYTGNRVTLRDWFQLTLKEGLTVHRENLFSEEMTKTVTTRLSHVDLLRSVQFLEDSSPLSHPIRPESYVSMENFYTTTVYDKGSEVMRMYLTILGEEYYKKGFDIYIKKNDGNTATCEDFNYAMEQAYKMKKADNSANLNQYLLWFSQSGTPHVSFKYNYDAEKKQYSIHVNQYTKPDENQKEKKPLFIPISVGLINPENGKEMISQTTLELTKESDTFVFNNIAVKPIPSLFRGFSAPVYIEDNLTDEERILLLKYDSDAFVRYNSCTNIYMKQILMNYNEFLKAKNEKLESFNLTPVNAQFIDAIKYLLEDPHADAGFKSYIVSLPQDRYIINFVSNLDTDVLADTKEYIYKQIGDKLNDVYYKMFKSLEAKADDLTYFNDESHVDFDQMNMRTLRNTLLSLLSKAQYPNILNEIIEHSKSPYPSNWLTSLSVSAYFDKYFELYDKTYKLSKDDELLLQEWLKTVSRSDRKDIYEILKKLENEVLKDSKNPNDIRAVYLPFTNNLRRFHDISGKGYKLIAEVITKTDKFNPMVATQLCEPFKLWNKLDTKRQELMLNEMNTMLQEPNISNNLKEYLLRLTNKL

Chain of G2/mitotic-specific cyclin-B1 (P14635 whole entry): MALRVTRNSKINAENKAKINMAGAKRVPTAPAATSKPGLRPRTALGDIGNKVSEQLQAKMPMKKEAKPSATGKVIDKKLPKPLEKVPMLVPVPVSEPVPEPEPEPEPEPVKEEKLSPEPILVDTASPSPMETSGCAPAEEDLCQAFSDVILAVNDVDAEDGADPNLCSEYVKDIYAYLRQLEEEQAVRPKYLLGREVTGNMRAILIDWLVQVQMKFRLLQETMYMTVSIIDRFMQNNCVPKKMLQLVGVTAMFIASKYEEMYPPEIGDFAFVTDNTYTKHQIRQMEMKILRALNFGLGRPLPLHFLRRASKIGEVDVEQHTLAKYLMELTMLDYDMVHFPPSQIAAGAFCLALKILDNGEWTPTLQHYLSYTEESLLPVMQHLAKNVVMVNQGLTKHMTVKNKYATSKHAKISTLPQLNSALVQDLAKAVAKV

Cc1cccn2c1nc(=S)n2C(=O)c1ccco1
EC50 [1]: > 49.7 µM (not active) | EC50 [2]: 1.05 µM (active) | EC50 (Wee1-like protein kinase): > 49.7 µM (not active) | EC50 (H4): 0.104 µM (active)

O=C(NCCC1=CCCCC1)c1c(O)nc2sccn2c1=O
CC50 [3]: 13.8 µM (active) | IC50 [4]: 3.8 µM (active)

CCn1ccc(C(=O)Nc2ccc(S(=O)(=O)Nc3ccccc3OC)cc2)n1
IC50 (Bcl-2-like protein 10): > 100 µM (inactive)

CC(C)Oc1ccc(C(=O)N/N=C/c2ccc(-c3ccc(S(=O)(=O)Nc4ncccn4)cc3)o2)cc1
IC50 (Aminopeptidase N): 23.1 µM (active)
